Test [1] has as its target T1, KRas G12D (Homo sapiens (Human), UniProt P01116, G12D). The test can be described thus: KRas G12D Binding Assay (TR-FRET displacement). The settings on record: TR-FRET displacement of Cy5 labelled tracer, GDP-loaded KRAS G12D, 60 minute incubation at 22° C. Here is the method:
After a 60 minute incubation at 22° C., the reaction was measured using a PerkinElmer EnVision multimode plate reader via TR-FRET dual wavelength detection, and the percent of control (POC) calculated using a ratiometric emission factor. […] The POC values were fit to a 4-parameter logistic curve and the IC50 value was determined as the concentration where the curve crosses 50 POC.
Target sequence in this assay (P01116 other isoform, or with tags, fused parts or gaps G12D): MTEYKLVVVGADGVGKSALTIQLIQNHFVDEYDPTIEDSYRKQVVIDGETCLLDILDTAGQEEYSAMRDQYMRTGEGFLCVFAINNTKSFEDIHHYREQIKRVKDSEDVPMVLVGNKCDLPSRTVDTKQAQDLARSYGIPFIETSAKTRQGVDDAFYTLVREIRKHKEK

The target of test [2] is T1, KRas G12D. The test can be described thus: KRas G12D Surface Plasmon Resonance (SPR) Binding Assay. The note with it: Biacore T200, immobilized biotinylated KRAS protein, 1:1 binding model. Here is the method:
Briefly, 1 L of 1.05× HBS-Mg buffer (262.5 mM Bioultra Hepes, pH 7.5, 157.5 mM NaCl, 105 mM MgCl2, 0.525 mM TCEP, 0.0305% Brij-35) was prepared and filter sterilized using a 0.22 μm bottle top filter. Approximately 50 mL of 1.05× HBS-Mg buffer was removed and saved for future dilutions. A 50 mL aliquot of DMSO (Sigma Aldrich DMSO Lot. #SHBK2079) was added and continued to stir for 10 minutes, creating the final 1.0× HBS-Mg buffer (250 mM Bioultra Hepes pH 7.5, 150 mM NaCl, 100 mM MgCl2, 0.5mM TCEP, 0.03% Brij-35).
Biacore T200 instrument was primed using 1.0× HBS-Mg buffer before docking a GE Streptavidin (SA) chip and then primed two additional times prior to beginning the immobilization step. All immobilized protein mixtures were created using 3-5mg/mL Biotinylated Avidin-tagged KRAS protein using the following immobilization settings: SA chip type, 1 flow cells per cycle, 720 second contact time, and 5 ul/min flow rate. Normalization of the detector was also performed during the immobilization step using the GE Biallormalize solution.
All compounds were diluted to 10 mM in 100% DMSO prior to being diluted 20× in 1.05× buffer. […] Data evaluation was performed using the Biacore T200 Evaluation software and data fit to 1:1 binding model.
On the technique in general: SPR reads the build-up and loss of mass on a sensor chip optically.
Target sequence in this assay (P01116-2 other isoform, or with tags, fused parts or gaps G12D): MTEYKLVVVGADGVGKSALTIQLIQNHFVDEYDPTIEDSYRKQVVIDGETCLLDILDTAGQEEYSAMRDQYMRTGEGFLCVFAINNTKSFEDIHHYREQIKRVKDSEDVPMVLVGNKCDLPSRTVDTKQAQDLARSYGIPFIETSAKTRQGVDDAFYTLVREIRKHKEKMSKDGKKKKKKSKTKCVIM

Test [3] has as its system KRas G12D-mediated phosphorylation of ERK. The test can be described thus: Inhibition of KRas G12D-mediated phosphorylation of ERK in AGS cells. It counts as cell-based. The note with it: Homo sapiens; AGS cells expressing G12D, 3 hours, phospho-ERK normalized to GAPDH. Put shortly: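 In-cell Western: p-ERK Thr202/Tyr204 signal over GAPDH, as % of DMSO control, with IC50 from a 4-parameter curve. AGS cells seeded 40,000/well for 12-14 h, exposed to compound 3 h at 0.5% DMSO final, then formaldehyde-fixed and methanol-permeabilized.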

Regarding `Cn1c(CCOc2nc(N3C[C@H]4CC[C@@H](C3)N4)c3cnc(-c4cc(O)cc5ccccc45)c(F)c3n2)nc2ccccc21` [Example 30, 4-(4-((1R,5S)-3,8-diazabicyclo[3.2.1]octan-3-yl)-8-fluoro-2-(2-(1-methyl-1H-benzo[d]imidazol-2-yl)ethoxy)pyrido[4,3-d]pyrimidin-7-yl)naphthalen-2-ol], the results for the IC50 in test [1] and in test [3] were 418 nM and 9600 nM, respectively. The same molecule yielded a Kd in test [2] of 180 nM.

On to `O[C@@H]1C[C@@H]2CN(c3nc(OCC45CCCN4CCC5)nc4c(F)c(-c5cccc6cccc(Cl)c56)ncc34)C[C@H]1N2` [Example 49, (1R,5R,6R)-3-(7-(8-chloronaphthalen-1-yl)-8-fluoro-2-((tetrahydro-1H-pyrrolizin-7a(5H)-yl)methoxy)pyrido[4,3-d]pyrimidin-4-yl)-3,8-diazabicyclo[3.2.1]octan-6-ol], for which the IC50 in test [1] came to 5.9 nM; in test [3], 2120 nM. Also, binding in test [2] was put at a Kd of 0.4 nM.

As for `Oc1cc(-c2ncc3c(N4C[C@H]5CC[C@@H](C4)N5)nc(OCCCN4C[C@@H]5C[C@H]4CO5)nc3c2F)c2ccccc2c1` [Example 24, 4-(2-(3-((1S,4S)-2-oxa-5-azabicyclo[2.2.1]heptan-5-yl)propoxy)-4-((1R,5S)-3,8-diazabicyclo[3.2.1]octan-3-yl)-8-fluoropyrido[4,3-d]pyrimidin-7-yl)naphthalen-2-ol], the IC50 in test [1] was 7.9 nM; in test [3], 2890 nM. The same molecule came in with a Kd in test [2] of 5 nM.

Take `Fc1c(-c2cncc3cccc(Cl)c23)ncc2c(N3C[C@H]4CC[C@@H](C3)N4)nc(OCC34CCCN3CCC4)nc12` [Example 33, 4-((1R,5S)-3,8-diazabicyclo[3.2.1]octan-3-yl)-7-(5-chloroisoquinolin-4-yl)-8-fluoro-2-((tetrahydro-1H-pyrrolizin-7a(5H)-yl)methoxy)pyrido[4,3-d]pyrimidine bis(2,2,2-trifluoroacetate)]: the IC50 in test [1] was 21.1 nM; in test [3], 2050 nM. This molecule also displayed a Kd in test [2] of 71.7 nM.

What is called IC50 is the concentration needed to halve the response being measured. A higher IC50 goes with weaker potency in that assay. A word on the Kd: it is a measure of binding affinity in units of concentration. The low end stands for higher affinity, the high end for lower affinity.

Source of the values: US11453683B1, “KRas G12D inhibitors” (Mirati Therapeutics, Inc., priority 2019, dated 2022).
